The results in this text go back to patent publication US20230056497A1, “CD206 Modulators Their Use and Methods for Preparation” (The United States of America, As Represented by the …, priority 2019, published 2023).

Read-outs that look alike come from different tables or passages of the source.

Holding throughout (format): cell-based
The subject of assay [1] is M2 macrophages. Briefly: Anti-cell viability screening: reduction of M2 macrophage cell viability (Percentage Relative Cell Viability versus Log Molar Concentration). How it is done:
Assays were conducted in a 96-well black solid-bottom plate with a final assay volume of 100 μL.

Assay [2] concerns M2 polarized macrophages with intact CD206 (wild type) versus isogenic M2 polarized macrophages lacking the CD206 receptor. Briefly: Cell viability in M2 polarized macrophages with intact CD206 versus isogenic macrophages lacking CD206.
For another assay, the system named is murine M2 macrophages. Briefly: M1 markers in murine M2 macrophages by quantitative flow cytometry. Particulars: 20 μM for 2 hours. (In flow cytometry, cells or beads pass a laser one at a time.)
Assay [3] has as its system M2 macrophages. Nature of the assay: Cancer cell phagocytosis by M1 and M2 macrophages, relative quantitative fluorescence. The following applies: M2 versus M1 macrophages. An excerpt:
FIGS. 14A to 14B illustrate this selectivity towards M2 macrophages.

Where [4] appears, read: Macrophage, figure legends and text, read-out: IC50, macrophage activity (Percentage Relative Cell Viability versus Log Molar Concentration) (converted).
Setting [5] is: Macrophage, Table 2, read-out: IC50.

Take `CC(=O)Nc1ccc(NC(=O)c2ccc(-c3ncc4cnc(-c5ccccc5)cn34)cc2)cc1` [Compound 5, N-(4-acetamidophenyl)-4-(6-phenylimidazo[1,5-a]pyrazin-3-yl)benzamide]: the IC50 with M2 macrophages [1] (setting [4]) is 7.36 µM.
On the same count and under the same terms, the value for `CN(C)CCNC(=O)c1ccc(-c2ncc3cnc(-c4ccccc4)cn23)cc1` [Compound 7, N-(2-(dimethylamino)ethyl)-4-(6-phenylimidazo[1,5-a]pyrazin-3-yl)benzamide] was 3.13 µM; that for `NC(=O)c1ccc(-c2ncc3cnc(-c4cccc(F)c4)cn23)cc1` [Compound 8, 4-(6-(3-fluorophenyl)imidazo[1,5-a]pyrazin-3-yl)benzamide] was 0.45 µM; that for `O=C(NCCCn1ccnc1)c1ccc(-c2ncc3cnc(-c4ccccc4)cn23)cc1` [Compound 6, N-(3-(1H-imidazol-1-yl)propyl)-4-(6-phenylimidazo[1,5-a]pyrazin-3-yl)benzamide] was 3.85 µM.
For the molecule `O=C(c1cc2ccccc2[nH]1)N1CCc2c(n(Cc3cccnc3)n(CCc3ccccc3)c2=O)C1` [Compound 2], the IC50 in the assay with M2 macrophages [1] (setting [5]) turned out to be 4.59 µM. Further, the “M2 Selectivity” value in the assay with M2 macrophages [1] (Table 2) is “Yes”. Moreover, the “CD206 dependence of macrophage activity” value in assay [2] is recorded as “CD206 dependent”. Further, the “M1 markers (percent positive cell fractions)” value with murine M2 macrophages is “induction of M1 markers in M2 macrophages”.
For `O=C(NCCCO)c1ccc(-c2ncc3cnc(-c4cccc(F)c4)cn23)cc1` [Compound 9, 4-(6-(3-fluorophenyl)imidazo[1,5-a]pyrazin-3-yl)-N-(3-hydroxypropyl)benzamide], the IC50 in the assay with M2 macrophages [1] (setting [4]) is 0.73 µM.
As for `CC(=O)c1c(C)oc2ccc(N(C(=O)Oc3ccccc3)[S+](=O)(O)c3ccccc3)cc12` [Compound 3], the IC50 with M2 macrophages [1] (setting [5]) was determined as 3.88 µM. Also, the “M2 Selectivity” value with M2 macrophages [1] (Table 2) is given as “Yes”. For the same molecule, in assay [2], the “CD206 dependence of macrophage activity” value is listed as “CD206 dependent”.
In the case of `O=C(NCCN1CCOCC1)c1ccc(-c2ncc3cnc(-c4ccccc4)cn23)cc1` [Compound 4, N-(2-Morpholinoethyl)-4-(6-phenylimidazo[1,5-a]pyrazin-3-yl)benzamide], the IC50 in the assay with M2 macrophages [1] (setting [4]) was 8.95 µM.
For `O=C(NCCCN1CCCC1=O)c1ccc(-c2ncc3cnc(-c4ccccc4)cn23)cc1` [Compound 28, N-(3-(2-oxopyrrolidin-1-yl)propyl)-4-(6-phenylimidazo[1,5-a]pyrazin-3-yl)benzamide], in the assay on M2 macrophages [3], the cancer cell phagocytosis result was “increases cancer cell phagocytosis in M2 but not in M1 macrophages”.
Consider `CC(=O)NCCNC(=O)c1ccc(-c2ncc3cnc(-c4cccc(F)c4)cn23)cc1` [Compound 10, N-(2-acetamidoethyl)-4-(6-(3-fluorophenyl)imidazo[1,5-a]pyrazin-3-yl)benzamide], for which the IC50 in the assay on M2 macrophages [1] (figure legends and text, read-out: IC50, macrophage activity (Percentage Relative Cell Viability versus Log Molar Concentration) (converted)) was 5.45 µM.
